Measured values: article PMC7529893, “Structural basis for substrate recognition and chemical inhibition of oncogenic MAGE ubiquitin ligases” (Nature Communications, 2020)

Target: T1, MAGE-A11:PCF11 interaction (GST-MAGE-A11 and FAM-PCF11_4) (Homo sapiens, UniProt P43364)
T1 construct: GST-MAGE-A11 MHD (human MAGE-A11 MHD amino acid 218-429); made in house; host or cells: E. coli BL21(DE3)
T1 sequence (P43364 218-429): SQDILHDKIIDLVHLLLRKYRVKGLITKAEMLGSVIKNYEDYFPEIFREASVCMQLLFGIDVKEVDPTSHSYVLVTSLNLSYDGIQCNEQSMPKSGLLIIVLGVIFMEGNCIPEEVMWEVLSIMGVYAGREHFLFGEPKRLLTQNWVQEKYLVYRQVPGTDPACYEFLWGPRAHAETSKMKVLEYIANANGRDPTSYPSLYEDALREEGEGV
Test: TR-FRET primary / single point screen at 15 µM
Format: binding
Procedure, shortened: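 TR-FRET 520/490 nm emission ratio was read after 90 min at room temperature. Wells held 5 nM GST-MAGE-A11, 5 nM Tb-anti-GST, 200 nM FAM-PCF11_4 and 15 µM compound in Tris pH 7.5 buffer with MgCl2, BSA and DTT. %Inhibition was scaled to DMSO and minus-MAGE-A11 controls.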

[1] = single point TR-FRET screening of quinoline compounds against MAGE-A11:PCF11, 15 µM
[2] = single point TR-FRET screening of 797 quinoline compounds against MAGE-A11:PCF11

percent inhibition (TR-FRET) [1]	percent inhibition (TR-FRET) [2]	Compound
-91.8376		CCCN(CCCNc1c2ccc(Cl)cc2nc2ccc(OC)cc12)Cc1ccccc1O [SJ000520926]
	-220.357	COc1ccc2nc3cc(Cl)ccc3c(NCCCNCc3cc4ccccc4s3)c2c1 [SJ000521000]
35.4339		CCCN(CCCNc1ccnc2cc(Cl)ccc12)Cc1c(C)cc(C)cc1C [SJ000522749]
	16.2962	Clc1ccc2c(NCCCCN(Cc3ccccc3)Cc3ccsc3)ccnc2c1 [SJ000312689]
	-4.954	O=[N+]([O-])c1ccc(CN2CCC(Nc3ccnc4cc(Cl)ccc34)CC2)cc1 [SJ000523096]
	-5.969	CCc1ccc2ncc(S(=O)(=O)c3ccc(OC)cc3)c(N3CCN(C)CC3)c2c1 [SJ000083954]
32.9599		c1coc(CNCCCNc2ccnc3cc(C4CCCCC4)ccc23)c1 [SJ000311262]
10.905		Cc1ccsc1CN(CCCNc1ccnc2cc(Cl)ccc12)Cc1ccccc1 [SJ000357440]
	-255.258	COc1ccc2nc3cc(Cl)ccc3c(NCCCNCc3ccccn3)c2c1 [SJ000523024]
20.6371		CCCN(CCCNc1ccnc2cc(C(F)(F)F)ccc12)Cc1cc(F)ccc1C [SJ000521014]
	10.6575	Fc1ccc(CN2CCC(Nc3ccnc4cc(Cl)ccc34)CC2)cc1 [SJ000523093]
	-92.8867	COc1ccccc1N1CCN(c2c(S(=O)(=O)c3ccc(C)cc3)cnc3ccc(C)cc23)CC1 [SJ000117066]
	-3.321	Cc1ccc(S(=O)(=O)c2cnc3ccc(Cl)cc3c2N2CCN(c3ccccc3)CC2)cc1 [SJ000117050]
-13.1805		CCCN(CCCNc1ccnc2cc(Cl)ccc12)CCOCc1ccccc1 [SJ000357577]
19.4469		CCCN(CCCNc1ccnc2cc(C(F)(F)F)ccc12)Cc1csc2ccccc12 [SJ000520483]
12.9099		CCCN(CCCNc1ccnc2cc(Cl)ccc12)Cc1cccc(C#N)c1 [SJ000522763]
	-228.339	CCCN(CCCNc1c2ccc(Cl)cc2nc2ccc(OC)cc12)Cc1ccccc1[N+](=O)[O-] [SJ000520947]
40.005		CCCN(CCCNc1c2ccc(Cl)cc2nc2ccc(OC)cc12)Cc1c(Cl)ccc(Cl)c1Cl [SJ000523021]
2.84		Cc1ccc(CN(CCCNc2ccnc3cc(Cl)ccc23)Cc2ccccc2)o1 [SJ000312669]
73.499		CC(C)(C)c1ccc(-c2ccc3c(NCCCNCc4ccco4)ccnc3c2)cc1 [SJ000311286]
9.575		CCCN(CCCNc1ccnc2cc(Cl)ccc12)Cc1ccc([N+](=O)[O-])o1 [SJ000523047]
	-279.905	COc1ccc2nc3cc(Cl)ccc3c(NCCCNCc3nccn3C)c2c1 [SJ000521006]
	11.7837	CCN(CC)CC(=O)Nc1c2c(nc3ccccc13)N(C)CC2 [SJ000331537]
	-13.2577	COc1ccc(N2CCN(c3c(S(=O)(=O)c4ccc(C)c(C)c4)cnc4ccc(F)cc34)CC2)cc1 [SJ000117073]

percent inhibition (TR-FRET) [1]	percent inhibition (TR-FRET) [2]	Compound
	-7.6267	Cc1ccc(S(=O)(=O)c2cnc3ccc(F)cc3c2N2CCN(C)CC2)cc1C [SJ000247344]
	-363.307	COc1ccc2nc3cc(Cl)ccc3c(NCCCNCc3ccc4c(c3)OCO4)c2c1 [SJ000361085]
	23.3769	Clc1ccc2c(NCCCCN(CCc3ccccc3)Cc3ccccc3)ccnc2c1 [SJ000361211]
-2.857		COc1cccc(F)c1CN(CCCNc1ccnc2cc(Cl)ccc12)Cc1ccccc1 [SJ000357500]
	-14.2514	CCOc1ccc2ncc(C(=O)c3ccc(C)cc3)c(N3CCN(CC)CC3)c2c1 [SJ000247284]
-47.4182		COc1ccc2nc3cc(Cl)ccc3c(NCCCNCc3ccc(-c4cccc(Cl)c4)o3)c2c1 [SJ000522959]
25.6873		CC(C)(C)CCN(CCCNc1ccnc2cc(Cl)ccc12)Cc1ccccc1 [SJ000357578]
25.0481		FC(F)(F)Oc1ccc(CN(CCCNc2ccnc3cc(Cl)ccc23)Cc2ccccc2)cc1 [SJ000520460]
14.6158		CCCN(CCCNc1ccnc2cc(C(F)(F)F)ccc12)Cc1cccc2c1OCO2 [SJ000520472]
-21.8698		CCCN(CCCNc1ccnc2cc(Cl)ccc12)Cc1ccccc1OC(F)(F)F [SJ000357595]
-9.039		CCCN(CCCNc1c2ccc(Cl)cc2nc2ccc(OC)cc12)Cc1ccc([N+](=O)[O-])cc1 [SJ000520949]
	-329.654	CCCN(CCCNc1c2ccc(Cl)cc2nc2ccc(OC)cc12)Cc1ccc([N+](=O)[O-])o1 [SJ000523022]
	-252.464	COc1ccc2ncc(S(=O)(=O)c3ccccc3)c(N3CCN(c4ccccc4F)CC3)c2c1 [SJ000315263]
	7.676	COc1cccc(CN(CCCCNc2ccnc3cc(Cl)ccc23)Cc2ccccc2)c1O [SJ000312694]
	-15.9162	Clc1ccc2c(NCCCCN(CCOCc3ccccc3)Cc3ccccc3)ccnc2c1 [SJ000357543]
	31.8155	COc1ccc(C(F)(F)F)cc1CN(CCCCNc1ccnc2cc(Cl)ccc12)Cc1ccccc1 [SJ000520444]
25.8183		CCCCCNCCCNc1ccnc2cc(Cl)ccc12 [SJ000523057]
7.809		CCCN(CCCNc1ccnc2cc(Cl)ccc12)Cc1cccnc1 [SJ000357446]
	-4.068	Cc1ccc(S(=O)(=O)c2cnc3ccc(C)cc3c2N2CCN(c3ccc(F)cc3)CC2)cc1 [SJ000117058]
9.822		CCC(C)CNCCCNc1ccnc2cc(Cl)ccc12 (centres unmarked) [SJ000361104]
	7.146	CCN1CCN(c2c(S(=O)(=O)c3ccc(C)cc3)cnc3cc(OC)c(OC)cc23)CC1 [SJ000083965]
	28.3389	Fc1cccc(CN(CCCCNc2ccnc3cc(Cl)ccc23)Cc2ccccc2)c1 [SJ000361199]
	-32.0719	COc1ccc(S(=O)(=O)N2CCN(c3ccnc4cc(Cl)ccc34)CC2)cc1 [SJ000199955]
4.695		Clc1ccc2c(NCCCNCc3nc4ccccc4s3)ccnc2c1 [SJ000521034]

percent inhibition (TR-FRET) [1]	percent inhibition (TR-FRET) [2]	Compound
	4.171	Clc1ccc2c(NC3CCN(Cc4ccc5ccccc5c4)CC3)ccnc2c1 [SJ000523100]
	6.844	CCCN(CCCCNc1ccnc2cc(Cl)ccc12)Cc1c(F)cccc1OC [SJ000311203]
18.7467		CC(C)CN(CCCNc1ccnc2cc(Cl)ccc12)Cc1ccccc1 [SJ000357468]
	-298.775	COc1ccc2nc3cc(Cl)ccc3c(NCCCNCc3c(F)cccc3OC)c2c1 [SJ000520915]
	15.4273	Clc1ccc2c(NC3CCN(CC4CCCCC4)CC3)ccnc2c1 [SJ000523085]
	-304.796	COc1ccc2nc3cc(Cl)ccc3c(NCCCNCc3ccc(C)s3)c2c1 [SJ000523029]
	-258.026	CCCN(CCCNc1c2ccc(Cl)cc2nc2ccc(OC)cc12)Cc1ccsc1 [SJ000520922]
	-8.687	COc1ccccc1N1CCN(c2c(S(=O)(=O)c3ccc(C)cc3)cnc3ccccc23)CC1 [SJ000117065]
23.7879		COc1cc(Cc2ccc3c(NCCCNCc4ccco4)ccnc3c2)cc(OC)c1 [SJ000311310]
14.3011		CCCN(CCCCCC(=O)OC)CCCNc1ccnc2cc(Cl)ccc12 [SJ000523017]
	15.1059	Cc1[nH]cnc1CN(CCCCNc1ccnc2cc(Cl)ccc12)Cc1ccccc1 [SJ000520428]
	18.5377	Cc1cccc(CN2CCC(Nc3ccnc4cc(Cl)ccc34)CC2)c1 [SJ000523101]
6.284		O=[N+]([O-])c1ccc(CNCCCNc2ccnc3cc(Cl)ccc23)s1 [SJ000520912]
-7.745		CCCN(CCCNc1ccnc2cc(C(F)(F)F)ccc12)Cc1ccccc1[N+](=O)[O-] [SJ000523071]
27.1172		FC(F)(F)c1ccc2c(NCCCNCC3CCCCC3)ccnc2c1 [SJ000361110]
	-5.706	COc1ccccc1N1CCN(c2c(S(=O)(=O)c3ccc(C)c(C)c3)cnc3ccccc23)CC1 [SJ000117068]
24.558		CCC(CC)c1ccc2c(NCCCNCc3ccco3)ccnc2c1 [SJ000311266]
	-19.5512	COc1ccccc1N1CCN(c2c(S(=O)(=O)c3ccccc3)cnc3ccc(C)cc23)CC1 [SJ000315081]
6.554		Cc1ccsc1CNCCCNc1ccnc2cc(Cl)ccc12 [SJ000311189]
41.6887		FC(F)(F)c1ccc2c(NCCCNCc3ccc[nH]3)ccnc2c1 [SJ000361105]
12.7954		CCCN(CCCNc1ccnc2cc(Cl)ccc12)Cc1cc2ccccc2nc1Cl [SJ000522760]
	-265.674	CCN(CC)CCCC(C)Nc1c2ccc(Cl)cc2nc2ccc(OC)cc12 (centres unmarked) [SJ000285202]
9.365		Fc1ccc(Oc2ccc3c(NCCCNCc4ccco4)ccnc3c2)cc1 [SJ000311222]
